According to PubChem BioAssay (NCI):
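A five-concentration, 48-hour dose response in 96-well plates underlies each endpoint, interpolated linearly between surrounding concentrations. GI50 is the concentration that inhibits growth by half. TGI: concentration producing complete growth inhibition.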

Assays:
Experiment in all cases: NCI anticancer screen, dose series, 48 h
786-0 renal = system: 786-0 renal
A498 renal = system: A498 renal
A549 NSCLC = system: A549 NSCLC
ACHN renal = system: ACHN renal
BT-549 breast = system: BT-549 breast
CAKI-1 renal = system: CAKI-1 renal
CCRF-CEM leukemia = system: CCRF-CEM leukemia
COLO 205 colon = system: COLO 205 colon
DU-145 prostate = system: DU-145 prostate
HCC-2998 colon = system: HCC-2998 colon
HCT-116 colon = system: HCT-116 colon
HCT-15 colon = system: HCT-15 colon
HL-60(TB) leukemia = system: HL-60(TB) leukemia
HOP-62 NSCLC = system: HOP-62 NSCLC
HOP-92 NSCLC = system: HOP-92 NSCLC
HS 578T breast = system: HS 578T breast
HT29 colon = system: HT29 colon
IGROV1 ovarian = system: IGROV1 ovarian
K-562 leukemia = system: K-562 leukemia
KM12 colon = system: KM12 colon
LOX IMVI melanoma = system: LOX IMVI melanoma
M14 melanoma = system: M14 melanoma
MALME-3M melanoma = system: MALME-3M melanoma
MCF7 breast = system: MCF7 breast
MDA-MB-231 breast = system: MDA-MB-231 breast
MDA-MB-435 = system: MDA-MB-435
MOLT-4 leukemia = system: MOLT-4 leukemia
NCI-H226 lung = system: NCI-H226 lung
NCI-H23 lung = system: NCI-H23 lung
NCI-H460 lung = system: NCI-H460 lung
NCI-H522 lung = system: NCI-H522 lung
NCI/ADR-RES ovarian = system: NCI/ADR-RES ovarian
OVCAR-3 ovarian = system: OVCAR-3 ovarian
OVCAR-4 ovarian = system: OVCAR-4 ovarian
OVCAR-5 ovarian = system: OVCAR-5 ovarian
OVCAR-8 ovarian = system: OVCAR-8 ovarian
PC-3 prostate = system: PC-3 prostate
RPMI-8226 leukemia = system: RPMI-8226 leukemia
RXF 393 renal = system: RXF 393 renal
SF-268 CNS = system: SF-268 CNS
SF-295 CNS = system: SF-295 CNS
SF-539 CNS = system: SF-539 CNS
SK-MEL-2 melanoma = system: SK-MEL-2 melanoma
SK-MEL-28 melanoma = system: SK-MEL-28 melanoma
SK-MEL-5 melanoma = system: SK-MEL-5 melanoma
SK-OV-3 ovarian = system: SK-OV-3 ovarian
SN12C renal = system: SN12C renal
SNB-19 CNS = system: SNB-19 CNS
SNB-75 CNS = system: SNB-75 CNS
SR leukemia = system: SR leukemia
SW-620 colon = system: SW-620 colon
T-47D breast = system: T-47D breast
TK-10 renal = system: TK-10 renal
U251 CNS = system: U251 CNS
UACC-257 melanoma = system: UACC-257 melanoma
UACC-62 melanoma = system: UACC-62 melanoma
UO-31 renal = system: UO-31 renal

## CC1(C)N=C(N)N=C(N)N1c1cccc(CCCCOc2ccccc2)c1
786-0 renal
  GI50: 142 nM
  TGI: > 100 µM
A498 renal
  GI50: 1800 nM
  TGI: > 81.3 µM
A549 NSCLC
  GI50: 56.2 nM
  TGI: 98.8 µM
ACHN renal
  GI50: 3.85 µM
  TGI: > 100 µM
BT-549 breast
  GI50: 1150 nM
  TGI: 16.8 µM
CAKI-1 renal
  GI50: 2700 nM
  TGI: > 100 µM
CCRF-CEM leukemia
  GI50: 41.4 nM
  TGI: 32.7 µM
COLO 205 colon
  GI50: 22.2 nM
  TGI: 14.4 µM
DU-145 prostate
  GI50: 62.6 nM
  TGI: > 100 µM
HCC-2998 colon
  GI50: 77.5 nM
  TGI: 17.2 µM
HCT-116 colon
  GI50: < 10 nM
  TGI: > 100 µM
HCT-15 colon
  GI50: 3.01 µM
  TGI: > 100 µM
HL-60(TB) leukemia
  GI50: 23.9 nM
  TGI: 9.6 µM
HOP-62 NSCLC
  GI50: 663 nM
  TGI: > 87.1 µM
HOP-92 NSCLC
  GI50: 2260 nM
  TGI: 30.3 µM
HS 578T breast
  GI50: 10.2 µM
  TGI: 37.3 µM
HT29 colon
  GI50: < 10 nM
  TGI: 15.7 µM
IGROV1 ovarian
  GI50: < 11.8 nM
  TGI: 15.7 µM
K-562 leukemia
  GI50: 50 nM
  TGI: > 100 µM
KM12 colon
  GI50: 39.8 nM
  TGI: 25 µM
LOX IMVI melanoma
  GI50: 39.5 nM
  TGI: 14.7 µM
M14 melanoma
  GI50: 95.8 nM
  TGI: > 41.3 µM
MALME-3M melanoma
  GI50: 7.22 µM
  TGI: 29.8 µM
MCF7 breast
  GI50: 50 nM
  TGI: 17.5 µM
MDA-MB-231 breast
  GI50: 881 nM
  TGI: 48.6 µM
MDA-MB-435
  GI50: < 19.4 nM
  TGI: 25 µM
MOLT-4 leukemia
  GI50: 62.9 nM
  TGI: 36.3 µM
NCI-H226 lung
  GI50: 801 nM
  TGI: > 100 µM
NCI-H23 lung
  GI50: 66.4 nM
  TGI: 81.4 µM
NCI-H460 lung
  GI50: < 10 nM
  TGI: 12.4 µM
NCI-H522 lung
  GI50: 61.4 nM
  TGI: 13.3 µM
NCI/ADR-RES ovarian
  GI50: > 100 µM
  TGI: > 100 µM
OVCAR-3 ovarian
  GI50: 547 nM
  TGI: 21 µM
OVCAR-4 ovarian
  GI50: 441 nM
  TGI: 38.6 µM
OVCAR-5 ovarian
  GI50: < 33.5 nM
  TGI: > 100 µM
OVCAR-8 ovarian
  GI50: 465 nM
  TGI: > 100 µM
PC-3 prostate
  GI50: < 10 nM
  TGI: 9.96 µM
RPMI-8226 leukemia
  GI50: 60.1 nM
  TGI: 13.6 µM
RXF 393 renal
  GI50: 147 nM
  TGI: > 100 µM
SF-268 CNS
  GI50: 55.8 nM
  TGI: 22.9 µM
SF-295 CNS
  GI50: 340 nM
  TGI: > 68.4 µM
SF-539 CNS
  GI50: 127 nM
  TGI: 17 µM
SK-MEL-2 melanoma
  GI50: 1610 nM
  TGI: 19.9 µM
SK-MEL-28 melanoma
  GI50: 521 nM
  TGI: 20.6 µM
SK-MEL-5 melanoma
  GI50: 423 nM
  TGI: 5.29 µM
SK-OV-3 ovarian
  GI50: 1910 nM
  TGI: > 100 µM
SN12C renal
  GI50: 140 nM
  TGI: 46.1 µM
SNB-19 CNS
  GI50: 326 nM
  TGI: > 77.4 µM
SNB-75 CNS
  GI50: 195 nM
  TGI: 22.9 µM
SR leukemia
  GI50: < 11 nM
  TGI: 20.7 µM
SW-620 colon
  GI50: 16.4 nM
  TGI: > 100 µM
T-47D breast
  GI50: 1620 nM
  TGI: 30.1 µM
TK-10 renal
  GI50: 197 nM
  TGI: 62.6 µM
U251 CNS
  GI50: 48.8 nM
  TGI: 55.7 µM
UACC-257 melanoma
  GI50: 381 nM
  TGI: 23.5 µM
UACC-62 melanoma
  GI50: 46.7 nM
  TGI: 13.7 µM
UO-31 renal
  GI50: 47.2 µM
  TGI: > 100 µM
